Data reported in patent US12043630B2, “Polymorphic form of TG02 for treating cancer” (Cothera Bioscience, Inc., priority 2017, dated 2024).
Structures can show the parent of a compound that is named as a salt.

Columns and labels:
[1] = Polymorphic form conversion over time; type: physicochemical
Experimental: Preparation: A solution containing TG02·HCl (77.1 g), EtOH (2340 mL) and H2O (185 mL) was heated at reflux for 0.5 h. The mixture was cooled to […] and stirred for 2 h. The mixture was filtered, and the filter cake was washed with EtOH and dried to give TG02 Form VIII (HCl).

CDK1 = CDK1 (Homo sapiens, UniProt P06493); conditions: cited from earlier work
Sequence of CDK1 (P06493 whole entry): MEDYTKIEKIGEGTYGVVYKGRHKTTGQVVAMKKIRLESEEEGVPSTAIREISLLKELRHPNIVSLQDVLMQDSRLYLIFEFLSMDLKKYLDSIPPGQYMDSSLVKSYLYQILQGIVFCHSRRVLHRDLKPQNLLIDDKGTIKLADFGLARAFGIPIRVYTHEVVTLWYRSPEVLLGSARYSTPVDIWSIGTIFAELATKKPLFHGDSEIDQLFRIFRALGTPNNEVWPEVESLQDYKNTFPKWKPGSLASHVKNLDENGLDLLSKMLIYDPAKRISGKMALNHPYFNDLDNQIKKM
Sequence of CDK1 (P14635 whole entry partner): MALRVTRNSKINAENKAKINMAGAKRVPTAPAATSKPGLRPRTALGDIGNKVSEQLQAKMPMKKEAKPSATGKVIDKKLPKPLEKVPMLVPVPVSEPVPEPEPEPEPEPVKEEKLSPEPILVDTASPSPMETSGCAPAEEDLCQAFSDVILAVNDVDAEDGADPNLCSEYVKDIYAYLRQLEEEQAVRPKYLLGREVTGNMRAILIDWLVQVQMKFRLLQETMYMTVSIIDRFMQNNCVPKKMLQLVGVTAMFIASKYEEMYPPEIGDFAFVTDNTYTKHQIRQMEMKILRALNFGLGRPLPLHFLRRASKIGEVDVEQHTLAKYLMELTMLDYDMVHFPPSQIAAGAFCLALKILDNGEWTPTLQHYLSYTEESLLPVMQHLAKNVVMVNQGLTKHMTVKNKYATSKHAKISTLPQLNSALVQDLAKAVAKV

CDK2 = CDK2 (Homo sapiens, UniProt P24941); conditions: cited from earlier work
CDK5 = CDK5 (Homo sapiens, UniProt Q00535); conditions: cited from earlier work
Sequence of CDK5 (Q00535 whole entry): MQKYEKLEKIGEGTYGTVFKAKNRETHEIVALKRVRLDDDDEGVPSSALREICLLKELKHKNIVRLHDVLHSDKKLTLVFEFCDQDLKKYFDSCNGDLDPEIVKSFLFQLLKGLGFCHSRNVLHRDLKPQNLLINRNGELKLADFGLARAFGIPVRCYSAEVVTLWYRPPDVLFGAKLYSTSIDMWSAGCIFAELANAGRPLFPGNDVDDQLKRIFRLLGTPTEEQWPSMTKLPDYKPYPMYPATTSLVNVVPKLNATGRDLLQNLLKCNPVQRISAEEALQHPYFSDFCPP
Sequence of CDK5 (Q15078 whole entry partner): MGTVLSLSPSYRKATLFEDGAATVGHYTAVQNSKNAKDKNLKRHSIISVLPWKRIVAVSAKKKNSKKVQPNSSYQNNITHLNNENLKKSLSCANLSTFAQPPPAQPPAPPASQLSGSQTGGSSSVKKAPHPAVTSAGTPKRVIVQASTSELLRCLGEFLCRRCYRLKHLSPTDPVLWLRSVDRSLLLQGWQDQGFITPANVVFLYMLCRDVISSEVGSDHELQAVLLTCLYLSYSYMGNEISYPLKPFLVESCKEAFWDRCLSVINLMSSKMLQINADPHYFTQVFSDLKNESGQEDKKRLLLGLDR

CDK7 = CDK7 (Homo sapiens, UniProt P50613); conditions: cited from earlier work
Sequence of CDK7 (P50613 whole entry): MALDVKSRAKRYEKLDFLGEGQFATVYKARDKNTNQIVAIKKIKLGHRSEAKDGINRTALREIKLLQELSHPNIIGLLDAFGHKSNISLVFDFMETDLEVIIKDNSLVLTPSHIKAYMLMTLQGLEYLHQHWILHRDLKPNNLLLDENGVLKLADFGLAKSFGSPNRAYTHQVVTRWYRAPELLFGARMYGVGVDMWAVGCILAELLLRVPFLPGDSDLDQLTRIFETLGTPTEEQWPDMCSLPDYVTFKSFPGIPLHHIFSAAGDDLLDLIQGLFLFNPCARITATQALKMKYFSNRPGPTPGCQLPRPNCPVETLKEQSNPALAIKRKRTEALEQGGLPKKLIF
Sequence of CDK7 (P51946 whole entry partner): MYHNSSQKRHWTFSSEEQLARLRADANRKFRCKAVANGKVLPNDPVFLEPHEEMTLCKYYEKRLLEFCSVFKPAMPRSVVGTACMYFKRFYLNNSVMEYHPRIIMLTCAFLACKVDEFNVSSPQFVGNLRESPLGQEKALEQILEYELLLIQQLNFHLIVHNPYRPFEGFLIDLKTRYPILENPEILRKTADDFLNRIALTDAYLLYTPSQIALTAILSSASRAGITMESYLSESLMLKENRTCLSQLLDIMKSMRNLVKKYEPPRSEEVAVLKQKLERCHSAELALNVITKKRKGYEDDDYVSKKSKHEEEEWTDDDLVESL
Sequence of CDK7 (P51948 whole entry partner): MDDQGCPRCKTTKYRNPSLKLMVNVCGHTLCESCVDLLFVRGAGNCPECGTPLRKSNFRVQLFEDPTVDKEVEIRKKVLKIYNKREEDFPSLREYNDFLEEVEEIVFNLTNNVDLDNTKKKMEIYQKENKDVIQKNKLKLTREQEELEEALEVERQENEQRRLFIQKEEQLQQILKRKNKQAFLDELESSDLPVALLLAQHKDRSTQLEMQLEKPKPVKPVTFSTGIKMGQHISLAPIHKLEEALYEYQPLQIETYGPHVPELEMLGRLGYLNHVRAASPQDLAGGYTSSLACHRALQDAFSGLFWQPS

CDK9 = CDK9 (Homo sapiens, UniProt P50750); conditions: cited from earlier work
Sequence of CDK9 (P50750 whole entry): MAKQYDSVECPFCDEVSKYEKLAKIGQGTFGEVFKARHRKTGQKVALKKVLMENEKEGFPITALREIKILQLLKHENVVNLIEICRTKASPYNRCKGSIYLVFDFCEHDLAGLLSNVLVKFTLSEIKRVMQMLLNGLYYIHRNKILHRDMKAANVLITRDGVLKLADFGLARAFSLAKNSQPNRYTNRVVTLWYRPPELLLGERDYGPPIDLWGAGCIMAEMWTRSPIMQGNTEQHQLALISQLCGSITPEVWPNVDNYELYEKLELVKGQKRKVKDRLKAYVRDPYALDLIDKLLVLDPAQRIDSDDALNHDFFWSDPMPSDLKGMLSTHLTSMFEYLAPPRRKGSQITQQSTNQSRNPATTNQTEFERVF
Sequence of CDK9 (O60563 whole entry partner): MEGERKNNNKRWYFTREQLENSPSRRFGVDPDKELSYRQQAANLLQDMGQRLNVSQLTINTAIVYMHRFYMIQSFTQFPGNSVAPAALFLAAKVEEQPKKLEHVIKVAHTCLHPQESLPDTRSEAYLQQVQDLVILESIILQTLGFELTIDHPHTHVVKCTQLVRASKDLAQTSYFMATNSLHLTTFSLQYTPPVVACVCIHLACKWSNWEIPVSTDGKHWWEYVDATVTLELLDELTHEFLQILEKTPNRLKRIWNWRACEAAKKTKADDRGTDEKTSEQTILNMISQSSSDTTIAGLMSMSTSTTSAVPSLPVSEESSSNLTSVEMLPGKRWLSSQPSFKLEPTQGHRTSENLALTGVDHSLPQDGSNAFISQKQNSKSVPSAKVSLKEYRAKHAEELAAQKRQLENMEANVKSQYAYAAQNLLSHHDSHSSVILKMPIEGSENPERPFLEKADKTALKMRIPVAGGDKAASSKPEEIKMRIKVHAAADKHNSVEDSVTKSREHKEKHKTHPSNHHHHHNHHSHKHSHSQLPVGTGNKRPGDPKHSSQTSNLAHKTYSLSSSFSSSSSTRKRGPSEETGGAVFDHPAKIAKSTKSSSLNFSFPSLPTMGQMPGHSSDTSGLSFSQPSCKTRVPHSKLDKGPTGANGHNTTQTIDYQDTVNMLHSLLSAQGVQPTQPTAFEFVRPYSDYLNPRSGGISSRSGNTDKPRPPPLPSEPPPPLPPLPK

JAK2 = JAK2 (Homo sapiens, UniProt O60674); conditions: cited from earlier work
Sequence of JAK2 (O60674 whole entry): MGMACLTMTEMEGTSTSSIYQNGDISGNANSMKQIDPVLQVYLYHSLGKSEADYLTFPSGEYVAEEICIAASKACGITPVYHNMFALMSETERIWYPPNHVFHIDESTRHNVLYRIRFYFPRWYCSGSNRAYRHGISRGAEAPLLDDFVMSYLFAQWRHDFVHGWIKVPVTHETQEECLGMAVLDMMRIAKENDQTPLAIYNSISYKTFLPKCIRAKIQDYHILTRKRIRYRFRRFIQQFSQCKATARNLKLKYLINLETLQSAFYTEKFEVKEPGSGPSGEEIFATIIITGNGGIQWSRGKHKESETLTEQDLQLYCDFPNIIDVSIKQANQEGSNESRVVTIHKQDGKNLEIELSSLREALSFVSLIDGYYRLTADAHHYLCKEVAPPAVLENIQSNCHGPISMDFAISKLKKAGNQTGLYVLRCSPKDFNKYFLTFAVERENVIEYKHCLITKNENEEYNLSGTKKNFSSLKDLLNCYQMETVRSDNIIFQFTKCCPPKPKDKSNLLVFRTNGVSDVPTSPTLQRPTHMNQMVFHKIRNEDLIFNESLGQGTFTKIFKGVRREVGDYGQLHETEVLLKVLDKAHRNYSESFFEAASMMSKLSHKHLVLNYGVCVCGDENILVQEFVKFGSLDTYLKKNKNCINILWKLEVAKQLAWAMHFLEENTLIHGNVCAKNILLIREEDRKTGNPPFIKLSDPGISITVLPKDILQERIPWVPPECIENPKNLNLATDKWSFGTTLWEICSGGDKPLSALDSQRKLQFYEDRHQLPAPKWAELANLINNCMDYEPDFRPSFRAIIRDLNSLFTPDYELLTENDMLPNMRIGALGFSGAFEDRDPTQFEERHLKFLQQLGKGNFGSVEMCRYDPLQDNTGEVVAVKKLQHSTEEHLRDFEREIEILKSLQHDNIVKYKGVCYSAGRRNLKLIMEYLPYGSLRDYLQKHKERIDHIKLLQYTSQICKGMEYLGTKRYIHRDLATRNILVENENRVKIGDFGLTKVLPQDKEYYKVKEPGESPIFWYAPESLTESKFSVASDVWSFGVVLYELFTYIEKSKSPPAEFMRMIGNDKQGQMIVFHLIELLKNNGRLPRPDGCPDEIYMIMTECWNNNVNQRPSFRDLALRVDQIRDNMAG

FLT3 = biological target: T1, FLT3 (Homo sapiens, UniProt P36888); conditions: cited from earlier work
T1 sequence (P36888 27-993): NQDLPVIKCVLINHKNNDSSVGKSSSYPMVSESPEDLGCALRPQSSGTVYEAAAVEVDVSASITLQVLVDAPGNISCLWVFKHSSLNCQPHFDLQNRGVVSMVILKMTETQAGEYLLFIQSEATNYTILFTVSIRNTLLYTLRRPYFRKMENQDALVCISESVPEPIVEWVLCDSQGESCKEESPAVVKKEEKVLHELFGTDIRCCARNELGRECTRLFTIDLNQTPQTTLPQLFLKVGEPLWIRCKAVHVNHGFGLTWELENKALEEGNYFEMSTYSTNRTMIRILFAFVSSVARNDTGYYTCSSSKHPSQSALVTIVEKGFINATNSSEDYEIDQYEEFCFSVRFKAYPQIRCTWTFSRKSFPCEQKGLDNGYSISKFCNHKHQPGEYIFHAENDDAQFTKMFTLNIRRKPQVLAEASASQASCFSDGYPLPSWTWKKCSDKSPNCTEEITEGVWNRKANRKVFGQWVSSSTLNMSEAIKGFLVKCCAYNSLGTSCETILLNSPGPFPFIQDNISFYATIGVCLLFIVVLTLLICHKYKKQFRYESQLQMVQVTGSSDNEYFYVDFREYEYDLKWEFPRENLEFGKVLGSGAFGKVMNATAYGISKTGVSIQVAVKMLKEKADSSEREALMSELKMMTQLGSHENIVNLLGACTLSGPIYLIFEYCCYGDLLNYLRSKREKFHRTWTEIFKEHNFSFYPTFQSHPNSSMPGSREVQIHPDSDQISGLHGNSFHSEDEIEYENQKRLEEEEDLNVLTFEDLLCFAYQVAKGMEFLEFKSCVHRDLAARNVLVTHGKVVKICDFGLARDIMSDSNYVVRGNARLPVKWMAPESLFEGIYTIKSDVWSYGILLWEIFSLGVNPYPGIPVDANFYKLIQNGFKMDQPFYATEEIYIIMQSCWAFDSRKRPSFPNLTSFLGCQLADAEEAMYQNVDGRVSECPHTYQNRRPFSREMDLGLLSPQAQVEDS

[2] = system: signaling pathways downstream of CDKs, JAK2 and FLT3 in cancer cells; conditions: cited from earlier work
tumor cell lines = conditions: cited from earlier work
[3] = system: progenitor cells derived from acute myeloid leukemia (AML) and polycythemia vera patients; conditions: cited from earlier work

## CN1C/C=C/CCOc2cccc(c2)-c2ccnc(n2)Nc2cccc(c2)C1 [TG02 Form VIII (HCl), (16E)-14-methyl-20-oxa-5,7,14,26-tetraazatetracyclo[19.3.1.1(2,6).1(8,12)]heptacosa-1(25),2(26),3,5,8(27),9,11,16,21,23-decaene]
[1]
  Form conversion over time: gradually converted to TG02 Form VI (HCl) over time

## CN1C/C=C/CCOc2cccc(c2)-c2ccnc(n2)Nc2cccc(c2)C1 [TG02, (16E)-14-methyl-20-oxa-5,7,14,26-tetraazatetracyclo[19.3.1.1(2,6).1(8,12)]heptacosa-1(25),2(26),3,5,8(27),9,11,16,21,23-decaene]
CDK1
  Inhibition of CDK1: inhibits
CDK2
  Inhibition of CDK2: inhibits
CDK5
  Inhibition of CDK5: inhibits
CDK7
  Inhibition of CDK7: inhibits
CDK9
  Inhibition of CDK9: inhibits
JAK2
  Inhibition of JAK2: inhibits
FLT3
  Inhibition of FLT3: inhibits
[2]
  Inhibition of signaling pathways downstream of CDKs, JAK2 and FLT3: dose-dependently inhibits
Tumor cell lines; broad range of tumor cell lines
  Anti-proliferative activity: anti-proliferative
Tumor cell lines; tumor cell lines
  Cell cycle arrest and apoptosis: inducing Gi cell cycle arrest and apoptosis
[3]
  Sensitivity of primary cultures to TG02: very sensitive
